Experimental findings from patent US8222420B2, “Nitrogen-containing compounds and harmful organism control agents” (Nippon Soda Co., Ltd., priority 2009, dated 2012) are described below.

The structures appear in SMILES notation.

The test system of one data set is Aphis gossypii. As to the kind of experiment: Efficacy against Aphis gossypii (spray on infested cucumber plants). Format: in vivo. The following applies: 500 ppm emulsion sprayed on cucumber plants infested with nymphs; 25° C., humidity 65%; 5 days later. From the text: Cucumber plants planted in a no. 3 pot for which 10 days had elapsed since germination were inoculated with adult Aphis gossypii. The adult insects were removed after 1 day, and a chemical liquid diluted with water to a compound concentration of 500 ppm was sprayed onto the cucumber plants infested with nymphs laid by the adults in accordance with the emulsion formula indicated in the aforementioned Preparation Example 2. The cucumber plants were placed in a constant temperature chamber at a temperature of 25° C. and humidity of 65% and insect viability was investigated 5 days later followed by determination of insect mortality rate. The test was repeated twice.

Data set [1] concerns Tetranychus urticae resistant to organic phosphorous agents. Briefly: Efficacy against Tetranychus urticae (spray on kidney bean plants). The class given is in vivo. The following applies: 500 ppm wettable powder sprayed on kidney bean plants with female adults; 25° C., humidity 65%; 3 days later. The source says: After inoculating the first true leaves of kidney bean plants planted in a no. 3 pot for which 7 to 10 days had elapsed since germination with 17 female adult Tetranychus urticae resistant to organic phosphorous agents, a chemical liquid diluted with water to a compound concentration of 500 ppm was sprayed onto the kidney bean plants in accordance with the formula of the wettable powder indicated in the aforementioned Preparation Example 1. The kidney bean plants were placed in a constant temperature chamber at a temperature of 25° C. and humidity of 65% and insect mortality rate was investigated 3 days later. The test was repeated twice.

`Cc1nc(N(C)C)nc(OC(=O)N(C)C)c1C` [pirimicarb] came in with an insect mortality rate in the data set with Aphis gossypii of 9%.
Regarding `Cc1cc(Cl)ccc1N=CN(C)C` [chlordimeform], in data set [1], the insect mortality rate is on record as 40%.
